Test results published in ChEMBL document CHEMBL3832069, “DailyMed|setid=b463cd5f-299a-45f8-a1b3-c9e7fe271955 | INDOMETHACIN- indomethacin capsule|PD-Rx Pharmaceuticals, Inc”.

What was measured:
Assay type in all cases: ADME, organism-based
[1] = (§1) Pharmacokinetic parameters for Indomethacin evaluated after single oral administration of 25 or 50 mg Indomethacin capsules.; parameters: dose 25 mg, dose 50 mg, route oral; conditions: human, in vivo, dosed compound id 57, dosed compound name INDOMETHACIN, regimen Single dose, tissue Plasma
[2] = test system: Homo sapiens; assay: as §1; parameters: dose 25 mg, dose 50 mg, route oral; conditions: in vivo, po, dosed compound id 57, dosed compound name INDOMETHACIN, regimen Single dose, tissue Plasma
[3] = Pharmacokinetic parameters for Indomethacin evaluated after oral administration of Indomethacin capsules.; conditions: human, in vivo, dosed compound id 57, dosed compound name INDOMETHACIN, tissue Plasma

**Q.** Which results are given for `COc1ccc2c(c1)c(CC(=O)O)c(C)n2C(=O)c1ccc(Cl)cc1` [INDOMETHACIN]?
**A.** Cmax ([1]; po): 1000 ng/mL; Tmax ([1]; dose 25 mg, route oral): 2 h; Cmax [2]: 2000 ng/mL; bioavailability [3]: 100%; half-life [3]: 4.5 h; fraction unbound ([3]; read-out: Protein binding): 0.01
